The text below walks through data of PubChem BioAssay (NCI).

Some test systems named below: DLD-1 colon; OVCAR-3 ovarian; HCT-15 colon; NCI-H226 lung; LXFL 529 NSCLC; K-562 leukemia; UACC-257 melanoma; SW-620 colon; RPMI-8226 leukemia; CCRF-CEM leukemia.
Common to all, as to assay: NCI-60 cell line screen, 48 h

Values joined by “and” are separate entries in the source; they are usually repeats but may differ in a detail not shown here. Equal entries are not always repeated.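 Each compound was tested at five concentrations against cells in 96-well plates for 48 hours. GI50 marks 50% less growth. TGI marks complete inhibition of growth.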 Where only a bound is given, the exact number is not on record here.

With `O=c1/c(=C/c2cccc3ccccc23)sc2nc3ccccc3n12`, the TGI in the experiment on DLD-1 colon, in the experiment on OVCAR-3 ovarian, with HCT-15 colon, with NCI-H226 lung, in the experiment on LXFL 529 NSCLC and in the experiment with K-562 leukemia was greater than 100 µM each time. Also, the TGI in the experiment on UACC-257 melanoma and in the experiment on SW-620 colon was greater than 100 µM throughout.
On to `COc1cc(OC)cc(N2CCC(c3c(N)nc(N)nc3Cl)CC2)c1`, for which the TGI in the experiment on RPMI-8226 leukemia, with DLD-1 colon, in the experiment with OVCAR-3 ovarian, in the experiment with HCT-15 colon, with LXFL 529 NSCLC and with K-562 leukemia was greater than 100 µM in each case. For the same compound, the TGI in the experiment on UACC-257 melanoma, in the experiment on CCRF-CEM leukemia and in the experiment on SW-620 colon was greater than 100 µM each time.
On to `COc1nc(OC)c2c(=O)oc(-c3ccccc3)cc2n1`, for which the TGI in the experiment with RPMI-8226 leukemia, in the experiment with HCT-15 colon, in the experiment with NCI-H226 lung, with LXFL 529 NSCLC, in the experiment with K-562 leukemia and in the experiment on UACC-257 melanoma was greater than 100 µM each time. The same compound displayed a TGI in the experiment on SW-620 colon greater than 100 µM.
With `CS(=O)(=O)C1S(=O)(=O)OCCOS1(=O)=O`, the TGI in the experiment with RPMI-8226 leukemia, in the experiment on DLD-1 colon, in the experiment with OVCAR-3 ovarian, in the experiment with NCI-H226 lung, with LXFL 529 NSCLC and in the experiment with K-562 leukemia was greater than 100 µM throughout. Also, the TGI in the experiment on UACC-257 melanoma and in the experiment on SW-620 colon was greater than 100 µM each time.
`O=c1cc2n(c(=O)[nH]1)C1OC(C(O)C1O)[C@@H]2CCO` (some centres not stated): the TGI in the experiment on DLD-1 colon, with LXFL 529 NSCLC, in the experiment on K-562 leukemia, with UACC-257 melanoma, in the experiment with CCRF-CEM leukemia and in the experiment on SW-620 colon was greater than 100 µM throughout.
`O=C(Cn1ccnc1[N+](=O)[O-])N(CCO)CCO`: the GI50 was greater than 1250 µM in the experiment with RPMI-8226 leukemia; greater than 312 µM in the experiment with OVCAR-3 ovarian; greater than 1250 µM in the experiment on HCT-15 colon; greater than 1250 µM in the experiment with NCI-H226 lung; greater than 1250 µM in the experiment with K-562 leukemia; greater than 1250 µM in the experiment with UACC-257 melanoma. The GI50 with CCRF-CEM leukemia is greater than 580 µM; with SW-620 colon, greater than 1250 µM. The TGI with RPMI-8226 leukemia was 250 µM and > 1250 µM; in the experiment with DLD-1 colon it was greater than 1250 µM; in the experiment with OVCAR-3 ovarian, greater than 828 µM; in the experiment with HCT-15 colon, greater than 1250 µM; in the experiment with NCI-H226 lung, greater than 1250 µM; in the experiment with K-562 leukemia, greater than 1250 µM. In addition, the TGI was greater than 1250 µM with UACC-257 melanoma, greater than 580 µM in the experiment with CCRF-CEM leukemia and greater than 1250 µM in the experiment on SW-620 colon.
Take `CCOC(C)OCC#CCCBr` (configuration not stated): the TGI in the experiment on RPMI-8226 leukemia, with DLD-1 colon, with OVCAR-3 ovarian, in the experiment on HCT-15 colon, with LXFL 529 NSCLC and in the experiment on K-562 leukemia was greater than 100 µM throughout. The TGI with UACC-257 melanoma, in the experiment with CCRF-CEM leukemia and in the experiment on SW-620 colon was greater than 100 µM each time.
`Cc1c(Cl)ccc2c1NC(=O)C2(O)CC(=O)c1ccc(Cl)cc1Cl` (configuration not stated): the TGI in the experiment on RPMI-8226 leukemia, in the experiment with OVCAR-3 ovarian, with HCT-15 colon, in the experiment on NCI-H226 lung, in the experiment with LXFL 529 NSCLC and with K-562 leukemia was greater than 50 µM in each case. Moreover, the values for the TGI in the experiment on UACC-257 melanoma, in the experiment on CCRF-CEM leukemia and in the experiment with SW-620 colon were greater than 50 µM, 22.4 µM and greater than 50 µM, respectively.
For `CC(NC(=O)c1ccccc1)C(=O)N(Cc1ccccc1)Cc1ccccc1` (configuration not stated), the TGI is 45.7 µM in the experiment on RPMI-8226 leukemia; greater than 100 µM in the experiment on DLD-1 colon; 88.9 µM in the experiment on HCT-15 colon; 56.3 µM in the experiment on NCI-H226 lung; 53.4 µM in the experiment with LXFL 529 NSCLC; 43.5 µM in the experiment with K-562 leukemia. The TGI in the experiment on UACC-257 melanoma is greater than 100 µM; in the experiment on CCRF-CEM leukemia, 47.1 µM; with SW-620 colon it was greater than 100 µM.
`O=CC1=CCCC2(C1)OCCO2`: the TGI with RPMI-8226 leukemia, with DLD-1 colon, in the experiment with OVCAR-3 ovarian, in the experiment with HCT-15 colon, with LXFL 529 NSCLC and with K-562 leukemia was greater than 100 µM in each case. Besides, the TGI with UACC-257 melanoma, in the experiment with CCRF-CEM leukemia and in the experiment on SW-620 colon was greater than 100 µM in each case.
On to `CC(=O)O[C@]1(C(C)=O)CC[C@H]2[C@@H]3C[C@H](C)C4=CC(=O)C=C[C@]4(C)[C@@]3(F)[C@@H](O)C[C@@]21C`, for which the TGI in the experiment on RPMI-8226 leukemia, in the experiment with DLD-1 colon, in the experiment on OVCAR-3 ovarian, in the experiment on HCT-15 colon, with NCI-H226 lung and in the experiment with K-562 leukemia was greater than 100 µM throughout. In addition, the TGI in the experiment with UACC-257 melanoma, in the experiment with CCRF-CEM leukemia and in the experiment on SW-620 colon was greater than 100 µM throughout.
Take `COC1/C=C/O[C@@]2(C)Oc3c(C)c(O)c4c(O)c(cc(O)c4c3C2=O)NC(=O)/C(C)=C\C=C\[C@H](C)C(O)[C@@H](C)[C@@H](O)[C@@H](C)[C@H](OC(C)=O)[C@@H]1C` (some centres not stated): the GI50 in the experiment with RPMI-8226 leukemia was 2.14 µM and 7.37 µM; in the experiment with OVCAR-3 ovarian, 2.6 µM and 8.56 µM; in the experiment with HCT-15 colon, 20.9 µM; with NCI-H226 lung, 39.6 µM and 59.3 µM; in the experiment on K-562 leukemia, 4.47 µM; in the experiment on UACC-257 melanoma, 17.5 µM. Moreover, the GI50 with CCRF-CEM leukemia is 0.504 µM; in the experiment with SW-620 colon, 2.72 µM and 7.91 µM. The TGI is 17.2 µM and 47.4 µM with RPMI-8226 leukemia; 30.4 µM with DLD-1 colon; 15.1 µM and 22.9 µM in the experiment with OVCAR-3 ovarian; 35.1 µM and 49.8 µM in the experiment on HCT-15 colon; 179 µM in the experiment with NCI-H226 lung; 21.8 µM and 82.6 µM in the experiment with K-562 leukemia. For the same compound, the TGI in the experiment with UACC-257 melanoma is 32.7 µM and 32.9 µM; in the experiment on CCRF-CEM leukemia, 4.07 µM and 32.6 µM; in the experiment on SW-620 colon, 13.6 µM and 21.9 µM.
Regarding `Nc1nc2ncn(CCO)c2c(=O)[nH]1`, the TGI in the experiment on RPMI-8226 leukemia, in the experiment with DLD-1 colon, in the experiment on OVCAR-3 ovarian, with HCT-15 colon, with NCI-H226 lung and in the experiment on LXFL 529 NSCLC was greater than 100 µM in each case. Further, the TGI in the experiment on UACC-257 melanoma, in the experiment with CCRF-CEM leukemia and in the experiment with SW-620 colon was greater than 100 µM throughout.
As for `Cc1cc(N(CCCl)CCCl)ccc1C=Nc1cccnc1`, the GI50 is 21.1 µM in the experiment with RPMI-8226 leukemia; 5.33 µM in the experiment on OVCAR-3 ovarian; 27.5 µM in the experiment with HCT-15 colon; 0.306 µM with NCI-H226 lung; 34.7 µM in the experiment on K-562 leukemia; 3.7 µM with UACC-257 melanoma. Further, the GI50 in the experiment on CCRF-CEM leukemia was 6.75 µM; with SW-620 colon, 61.2 µM. Further, the TGI was greater than 100 µM in the experiment with RPMI-8226 leukemia; 31.7 µM with OVCAR-3 ovarian; greater than 100 µM with HCT-15 colon; 1.79 µM in the experiment with NCI-H226 lung; greater than 100 µM with K-562 leukemia; 23.2 µM in the experiment with UACC-257 melanoma. The TGI in the experiment on CCRF-CEM leukemia and in the experiment on SW-620 colon was greater than 100 µM in each case.
